Test results from patent US11124774B2, “Engineered liver tissues, arrays thereof, and methods of making the same” (Organovo, Inc., priority 2013, dated 2021).

Test system: bioprinted hepatic stellate cell tissues
Assay: Stimulation of bioprinted hepatic stellate cell tissues with cytokine
Type: cell-based, human
Experimental: FIG. 15 is a non-limiting example of stimulation of bioprinted hepatic stellate cell tissues with TGF-β1.
Cylindrical bio-ink comprising relevant heterogeneous (i.e., polytypic) cell populations were prepared. Physiologically-relevant populations (e.g., hepatic stellate cells (hSC) and human aortic endothelial cells (EC)) of cells were combined at specific ratios to generate proper bio-ink. Cells were maintained and propagated under standard laboratory conditions and cells were cultured in media either purchased from the same vendor as the cells, or media comprising components typically found in the primary literature to be conducive to standard cell culture practices for those particular cell types. Cell processing for bio-ink preparation was as follows: briefly, cells were liberated from standard tissue culture plastic by washing with cation-free phosphate buffered saline (PBS) and then exposed to 0.1-0.05% trypsin (Invitrogen). Liberated cells were then washed in serum-containing media, collected, counted, and combined in an appropriate ratio for the stimulation assay or experiment being conducted, and pelleted by centrifugation. Supernatant was then removed and the cell pellet was aspirated into a glass microcapillary, which was then submerged in complete media for approximately 15 to 20 minutes. This cylindrical bio-ink structure was then extruded into a non cell-adherent hydrogel mold, containing linear channels and held for 2 to 18 hours. Cylindrical bio-ink containing hSC:EC was then used to fabricate bioprinted tissue constructs and maintained and/or matured in a humidified chamber. Tissue segments were fabricated with initial dimensions of 1.25 mm×8 mm×0.25 mm (W×L×H). During the post-bioprinting maturation period some constructs were exposed to the cytokine TGF-β1 to elicit a tissue-specific response (see FIG. 15).
The bioprinted neotissues were then submerged in serum-containing complete cell culture media and placed in a standard humidified chamber, supplemented with 5% CO2 for maturation. The bioprinted neotissues were then cultured and stimulated with a relevant cytokine(s) for a predetermined period of time, formalin-fixed, harvested, and processed for standard histology and immunohistochemistry. The bioprinted tissues were evaluated for characteristics such as, but not limited to for tissue morphology, cell organization, extracellular matrix production, cell proliferation, cell viability, and construct integrity.
Cytokine stimulation was conducted by adding cytokine directly to the culture media and incubating the bioprinted tissues with the added protein to provide direct and prolonged cell access to the proper stimulus. […]

[1] = 0-50 ng/mL, tissue sections of bioprinted hepatic stellate-containing tissues (FIG. 15E-H)

TGF-β1: cytokine (transforming growth factor beta 1) used to elicit a tissue-specific response in bioprinted tissues
cell density [1]: dramatic decreases in cell density
collagen deposition (Trichrome staining) [1]: increases in collagen deposition
construct size [1]: increases
tissue outgrowth formation (gross observation) (increasing concentrations 0, 1, 10, 50 ng/mL, bioprinted hepatic stellate cell sheets (FIG. 15A-D)): increases in tissue outgrowth formation
